Assay results taken from US6593324B2, “Dervatives of quinoline as alpha-2 antagonists” (Orion Corporation, priority 2000, dated 2003).

Assays:
male NMRI mice = assay: Antagonism of dexmedetomidine-induced locomotor inhibition; format: in vivo; settings: various doses 20 min before dexmedetomidine 50 nmol/kg s.c.; activity measured 20 min after; atipamezole effective at 0.3 and 1.0 μmol/kg s.c. (p<0.01); FIG. 1
Text: Dexmedetomidine and atipamezole are very potent and specific alpha-2 adrenoceptor agonists and antagonists, respectively, which lack alpha-2 subtype selectivity (H. Scheinin et al., European Journal of Pharmacology, Molecular Section, vol.151(1), 1988, p.35-42). The alpha-2 agonist-induced sedation is known to be an alpha-2A-mediated phenomenon that can be antagonised by alpha-2 antagonists (J. Sallinen et al., Mol. Pharmacol. Vol.51, 1997, p.36-46, and A. Haapalinna et al., Naunyn-Schimiedeberg's Arch. Pharmacol. Vol.356, 1997, p.570-582). The sedative effect of alpha-2 agonists in mice is measured by the inhibition on locomotor activity. Therefore, we compared the ability of Compound I and atipamezole to antagonise the dexmedetomidine-induced locomotor inhibition to evaluate the in vivo alpha-2A adrenoceptor antagonism (and alpha-2C selectivity) of these compounds.
Spontaneous locomotor activity of a total of 76 male NMRI mice (B&K, Sweden) was measured by placing individual animals into a polypropylene animal cage (38×22×15 cm). The cages were surrounded with an infrared photobeam frame system designed for activity measurements (Photobeam Activity System PAS, Cage Rack, San Diego Instruments, San Diego, Calif., USA). […] Spontaneous locomotor activity was measured 20 min after dexmedetomidine injection.

Balb/c mice = assay: Mouse forced swimming test; format: in vivo; settings: 0.3 μmol/kg 40 min before test; activity between 2 and 6 min; Compound 1 p=0.013, atipamezole p=0.52; FIG. 2
Text: This can be observed for example employing the forced swimming test, in which a rat or mouse is put into a water-filled cylinder. After a vigorous period of attempts to escape animals adopt an immobile floating posture; the extent of the immobile period is monitored and can be reduced by antidepressants and stress-protective agents. Transgenic mice that lack functional alpha-2C adrenoceptor tolerated swim-stress better than their similarly treated wild-type controls (J. Sallinen et al., Mol. Psychiatry, vol.4, 1999, p.443-452). Therefore, an increase in the forced swimming activity can be used as a measure of in vivo alpha-2C selective antagonism of a compound.
The forced swim test was conducted as originally described employing the stress sensitive (J. Crawley and L. Davis, Brain Research Bulletin, vol.8, 1982, p.609-612, and U.S. Pat. No. 5,902,807) Balb/c mouse strain (B&K, Sweden). The mice were administered either with vehicle (0.1% DMSO, 5 ml/kg subcutaneously), Compound 10.3 μmol/kg, or atipamezole 0.3 μmol/kg 40 min before putting the mice into a vessel (10 cm diameter, 18.5 cm height, filled with 25° C. water up to 8 cm height). The cumulative activity of each mouse was measured between 2 and 6 min after introduction to the vessel. Only vigorous attempts to escape (climbing) were registered. The mice (a total of 96) were tested only once.

brain = settings: employed doses of atipamezole; literature report; cited from earlier work
test animals = settings: literature report; cited from earlier work

Row | Structure (SMILES) | antagonism of dexmedetomidine-induced sedation (locomotor inhibition) (male NMRI mice) | stress-protective effect: forced swimming activity (climbing) vs vehicle (Balb/c mice) | neurochemical effect: noradrenaline release in brain (brain) | stress-protective effect (test animals)
1 | CN1CCN(c2ccc(Nc3c4ccccc4nc4ccccc34)cc2)CC1 [Compound 1, Acridin-9-yl-[4-(4-methylpiperazin-1-yl)-phenyl]amine] | did not antagonise the alpha-2-agonist-induced sedation at all | tolerated clearly better stress-induced propagation of behavioural despair |  | 
2 | CCC1(c2cnc[nH]2)Cc2ccccc2C1 [atipamezole] | inhibited dexmedetomidine-induced sedation | did not have any clear effect on the activity | stimulate noradrenaline release in brain | did not have a clear stress-protective effect
